Laboratory results published in US11591341B2 (ALIGOS THERAPEUTICS, INC., priority 2019, dated 2023).
pEC50: −log10 of the molar value.

Tested on: HBV
Test: HBV-DNA Antiviral Assay Using HepG2.117 Cells (intracellular HBV DNA by qPCR)
Format: cell-based, hepatitis B virus (genotype D)
Settings: Hepatitis B virus, HepG2.117
Summary of the method: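 Endpoint: qPCR copy number of intracellular HBV DNA after 3-day compound exposure, with inhibition set relative to the 2% DMSO control. The cells were doxycycline-free HepG2.117 carrying a Tet-off genotype D genome, dosed at nine 4-fold dilutions. A duplicate plate gave ATP-based viability (CC50).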

SMILES	pEC50
COc1ccc(-n2c(C(=O)NCc3ccc(C(F)(F)F)cc3)c3n(c2=O)CCN(C(=O)c2ccc(Br)c(Cl)c2)C3)cc1 [Example 140, 7-(4-bromo-3-chloro-benzoyl)-2-(4-methoxyphenyl)-3-oxo-N-[[4-(trifluoromethyl)phenyl]methyl]-6,8-dihydro-5H-imidazo[1,5-a]pyrazine-1-carboxamide]	5.30 to 6.30
COc1ccc(-n2c(C(=O)N[C@H](C(N)=O)c3ccccc3)c3n(c2=O)CCN(C(=O)c2ccc(Br)c(Cl)c2)C3)cc1 (racemic) [Example 207, 7-(4-bromo-3-chloro-benzoyl)-2-(4-methoxyphenyl)-3-oxo-N-[rac-(1S)-2-amino-2-oxo-1-phenyl-ethyl]-6,8-dihydro-5H-imidazo[1,5-a]pyrazine-1-carboxamide]	< 5.30
C[C@@H]1Cn2c(c3n(c2=O)C[C@@H](F)CN(Cc2ccccc2)C3=O)CN1C(=O)c1ccc(Br)c(Cl)c1 (stereo in doubt) [Example 373, rac-(5R,11S)-13-benzyl-4-(4-bromo-3-chloro-benzoyl)-11-fluoro-5-methyl-4,7,9,13-tetrazatricyclo[7.5.0.0^2,7]tetradec-1-ene-8,14-dione]	6.30 to 7.00
O=C(NCc1ccccc1-c1ccccn1)c1c2n(c(=O)n1-c1ccc(OCC(F)(F)F)cc1)CCN(C(=O)c1ccc(Br)c(Cl)c1)C2 [Example 370, 7-(4-bromo-3-chloro-benzoyl)-3-oxo-N-[[2-(2-pyridyl)phenyl]methyl]-2-[4-(2,2,2-trifluoroethoxy)phenyl]-6,8-dihydro-5H-imidazo[1,5-a]pyrazine-1-carboxamide]	> 7.00
CC1Cn2c(c(C(=O)N[C@H](C)c3ccccc3F)n(-c3ccc(OC4CC4)cc3)c2=O)CN1C(=O)c1ccc(Br)c(Cl)c1 (mixture of isomers) [Example 321, (6RS)-7-(4-bromo-3-chloro-benzoyl)-2-[4-(cyclopropoxy)phenyl]-N-[(1R)-1-(2-fluorophenyl)ethyl]-6-methyl-3-oxo-6,8-dihydro-5H-imidazo[1,5-a]pyrazine-1-carboxamide]	5.30 to 6.30
CC(C)Oc1ccc(-n2c(C(=O)N[C@@H](C)c3ccccc3)c3n(c2=O)CCN(C(=O)c2ccc(Br)c(Cl)c2)C3)cc1 (racemic) [Example 119, 7-(4-bromo-3-chloro-benzoyl)-2-(4-isopropoxyphenyl)-3-oxo-N-[rac-(1S)-1-phenylethyl]-6,8-dihydro-5H-imidazo[1,5-a]pyrazine-1-carboxamide]	6.30 to 7.00
COC1CCC(n2c(C(=O)N[C@@H](C)c3ccccc3)c3n(c2=O)CCN(C(=O)c2ccc(Br)c(Cl)c2)C3)CC1 (mixture of isomers) [Example 247, 7-(4-bromo-3-chloro-benzoyl)-2-(4-methoxycyclohexyl)-3-oxo-N-[rac-(1S)-1-phenylethyl]-6,8-dihydro-5H-imidazo[1,5-a]pyrazine-1-carboxamide]	< 5.30
O=C1COc2cc(-n3c(C(=O)NCc4ccccc4)c4n(c3=O)CCN(C(=O)c3ccc(Br)c(Cl)c3)C4)ccc2N1 [Example 404, N-benzyl-7-(4-bromo-3-chloro-benzoyl)-3-oxo-2-(3-oxo-4H-1,4-benzoxazin-7-yl)-6,8-dihydro-5H-imidazo[1,5-a]pyrazine-1-carboxamide]	5.30 to 6.30
COc1ccc([C@@H](C)NC(=O)c2c3n(c(=O)n2-c2ccc(OC4CC4)cc2)CCN(C(=O)c2ccc(Br)c(Cl)c2)C3)cc1 [Example 453, 7-(4-bromo-3-chloro-benzoyl)-2-[4-(cyclopropoxy)phenyl]-N-[(1R)-1-(4-methoxyphenyl)ethyl]-3-oxo-6,8-dihydro-5H-imidazo[1,5-a]pyrazine-1-carboxamide]	6.30 to 7.00
CC(NC(=O)c1c2n(c(=O)n1-c1ccc(OC3CC3)cc1)CCN(C(=O)c1ccc(Br)c(Cl)c1)C2)c1ccccc1 (racemic) [Example 179, 7-(4-bromo-3-chloro-benzoyl)-2-[4-(cyclopropoxy)phenyl]-3-oxo-N-[rac-(1R)-1-phenylethyl]-6,8-dihydro-5H-imidazo[1,5-a]pyrazine-1-carboxamide]	6.30 to 7.00
